PubChem BioAssay AID270 (DTP/NCI, 2004)
Several values for one entry are separate records, joined by “and”; a condition that tells them apart may be missing. Equal entries are not always repeated. Inconclusive results are not listed.

System: BDF1 mice, s.c. Lewis lung carcinoma, T/C %
Test: NCI In Vivo Anticancer Drug Screen. Data for tumor model Lewis Lung Carcinoma (subcutaneous) in B6D2F1 (BDF1) mice
In short: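 Tumor-bearing mice were treated with test compound, and either survival or tumor size was recorded. Values are the treated-group measurement divided by that of the vehicle-treated control group.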

[1] = endpoint: median survival time, dose: 50.0 mg/kg/injection, schedule: Q01DX009 (ip), vehicle: Klucel (hydroxypropylcellulose) (HPC), higher = longer survival
[2] = endpoint: median survival time, dose: 100.0 mg/kg/injection, schedule: Q01DX009 (ip), vehicle: Klucel (hydroxypropylcellulose) (HPC), higher = longer survival
[3] = endpoint: median survival time, dose: 4.0 mg/kg/injection, schedule: Q01DX009 (ip), vehicle: Klucel (hydroxypropylcellulose) (HPC), higher = longer survival

Q: Which T/C (endpoint: mean tumor weight, dose: 50.0 mg/kg/injection, schedule: Q01DX011 (ip), vehicle: saline, higher = larger tumour) does the source give for `Nc1ncnc2c1ncn2C1OC(CO)C(O)C1O` (configuration not stated) here?
A: 108 % of control

Q: What about the T/C (endpoint: mean tumor weight, dose: 100.0 mg/kg/injection, schedule: Q01DX011 (ip), vehicle: saline, higher = larger tumour) of the same compound?
A: 103 % of control

Q: What about the T/C (endpoint: mean tumor weight, dose: 200.0 mg/kg/injection, schedule: Q01DX011 (ip), vehicle: saline, higher = larger tumour) of the same compound?
A: 102 % of control

Q: And the T/C (endpoint: mean tumor weight, dose: 400.0 mg/kg/injection, schedule: Q01DX011 (ip), vehicle: saline, higher = larger tumour)?
A: 93 % of control

Q: What about the T/C (endpoint: median survival time, dose: 70.0 mg/kg/injection, schedule: Q03HX024 (ip), vehicle: saline with Tween-80, higher = longer survival) of the same compound?
A: 94 % of control

Q: What about the T/C (endpoint: median survival time, dose: 80.0 mg/kg/injection, schedule: Q03HX024 (ip), vehicle: saline with Tween-80, higher = longer survival) of the same compound?
A: 98 % of control

Q: What about the T/C (endpoint: median survival time, dose: 160.0 mg/kg/injection, schedule: Q03HX024 (ip), vehicle: saline with Tween-80, higher = longer survival) of the same compound?
A: 104 % of control

Q: What about the T/C (endpoint: median survival time, dose: 240.0 mg/kg/injection, schedule: Q03HX024 (ip), vehicle: saline with Tween-80, higher = longer survival) of the same compound?
A: 86 % of control

Q: Which T/C (endpoint: mean tumor weight, dose: 30.0 mg/kg/injection, schedule: Q01DX011 (ip), vehicle: other, higher = larger tumour) does the source give for `CCCCn1cnc2c(SC)nc(N)nc21` here?
A: 79 % of control

Q: And the T/C (endpoint: mean tumor weight, dose: 60.0 mg/kg/injection, schedule: Q01DX011 (ip), vehicle: other, higher = larger tumour)?
A: 103 % of control

Q: And the T/C (endpoint: mean tumor weight, dose: 120.0 mg/kg/injection, schedule: Q01DX011 (ip), vehicle: other, higher = larger tumour)?
A: 124 % of control

Q: Which results are given for `CC(=O)O[C@]1(C(C)=O)CC[C@H]2[C@@H]3C[C@H](C)C4=CC(=O)CC[C@]4(C)[C@H]3CC[C@@]21C`?
A: T/C [1]: 203 % of control; T/C [2]: 204 % of control; T/C (endpoint: median survival time, dose: 200.0 mg/kg/injection, schedule: Q01DX009 (ip), vehicle: Klucel (hydroxypropylcellulose) (HPC), higher = longer survival): 119 % of control; T/C (endpoint: median survival time, dose: 400.0 mg/kg/injection, schedule: Q01DX009 (ip), vehicle: Klucel (hydroxypropylcellulose) (HPC), higher = longer survival): 203 % of control

Q: How did the T/C (endpoint: median survival time, dose: 24.0 mg/kg/injection, schedule: Q01DX001 (ip), vehicle: saline with Tween-80, higher = longer survival) turn out when `O=NN(CCF)C(=O)NC1CCSc2ccccc21` (configuration not stated) was run?
A: 88 % of control

Q: With `CCCC(=O)NC1=C(N2CC2)C(=O)C(NC(=O)CCC)=C(N2CC2)C1=O` as the compound, how does the T/C (endpoint: mean tumor weight, dose: 0.8 mg/kg/injection, schedule: Q01DX011 (ip), vehicle: other, higher = larger tumour) read?
A: 81 % of control

Q: What about the T/C (endpoint: mean tumor weight, dose: 1.5 mg/kg/injection, schedule: Q01DX011 (ip), vehicle: other, higher = larger tumour) of the same compound?
A: 42 % of control

Q: What about the T/C (endpoint: mean tumor weight, dose: 3.0 mg/kg/injection, schedule: Q01DX011 (ip), vehicle: other, higher = larger tumour) of the same compound?
A: 28 % of control

Q: Which T/C (endpoint: median survival time, dose: 0.5 mg/kg/injection, schedule: Q01DX009 (ip), vehicle: Klucel (hydroxypropylcellulose) (HPC), higher = longer survival) does the source give for `O=C1CC(c2ccc(OCN(CCCl)CCCl)cc2)CC(=O)C1CN(CCCl)CCCl` (configuration not stated) here?
A: 101 % of control

Q: What about the T/C (endpoint: median survival time, dose: 1.0 mg/kg/injection, schedule: Q01DX009 (ip), vehicle: Klucel (hydroxypropylcellulose) (HPC), higher = longer survival) of the same compound?
A: 123 % of control

Q: And the T/C (endpoint: median survival time, dose: 2.0 mg/kg/injection, schedule: Q01DX009 (ip), vehicle: Klucel (hydroxypropylcellulose) (HPC), higher = longer survival)?
A: 116 % of control

Q: What about the T/C [3] of the same compound?
A: 123 % of control

Q: What about the T/C (endpoint: median survival time, dose: 8.0 mg/kg/injection, schedule: Q01DX009 (ip), vehicle: Klucel (hydroxypropylcellulose) (HPC), higher = longer survival) of the same compound?
A: 115 % of control

Q: What does the source list for `Nc1ncnc2c1ncn2C1CCCO1` (configuration not stated)?
A: T/C (endpoint: mean tumor weight, dose: 50.0 mg/kg/injection, schedule: Q01DX011 (ip), vehicle: other, higher = larger tumour): 75 % of control; T/C (endpoint: mean tumor weight, dose: 100.0 mg/kg/injection, schedule: Q01DX011 (ip), vehicle: other, higher = larger tumour): 56 % of control; T/C (endpoint: mean tumor weight, dose: 200.0 mg/kg/injection, schedule: Q01DX011 (ip), vehicle: other, higher = larger tumour): 37 % of control

Q: Which T/C (endpoint: mean tumor weight, dose: 5.0 mg/kg/injection, schedule: Q01DX011 (ip), vehicle: carboxymethylcellulose (CMC), higher = larger tumour) does the source give for `O=C(O)C(=O)O.[U]` here?
A: 37 % of control

Q: And the T/C (endpoint: mean tumor weight, dose: 10.0 mg/kg/injection, schedule: Q01DX011 (ip), vehicle: carboxymethylcellulose (CMC), higher = larger tumour)?
A: 55 % of control and 78 % of control

Q: And the T/C (endpoint: mean tumor weight, dose: 10.0 mg/kg/injection, schedule: Q01DX011 (ip), vehicle: saline, higher = larger tumour)?
A: 42 % of control

Q: What about the T/C (endpoint: mean tumor weight, dose: 20.0 mg/kg/injection, schedule: Q01DX011 (ip), vehicle: saline, higher = larger tumour) of the same compound?
A: 27 % of control

Q: What about the T/C [3] of the same compound?
A: 103 % of control

Q: And the T/C (endpoint: median survival time, dose: 16.0 mg/kg/injection, schedule: Q01DX009 (ip), vehicle: Klucel (hydroxypropylcellulose) (HPC), higher = longer survival)?
A: 101 % of control

Q: Which results are given for `O=[N+]([O-])c1ccc(Cl)c2c([N+](=O)[O-])cccc12`?
A: T/C (endpoint: median survival time, dose: 6.25 mg/kg/injection, schedule: Q01DX009 (ip), vehicle: Klucel (hydroxypropylcellulose) (HPC), higher = longer survival): 118 % of control; T/C (endpoint: median survival time, dose: 12.5 mg/kg/injection, schedule: Q01DX009 (ip), vehicle: Klucel (hydroxypropylcellulose) (HPC), higher = longer survival): 114 % of control; T/C [1]: 103 % of control; T/C [2]: 111 % of control
